{
  "source": "paper PMC4010452",
  "about": "“Modulation of Mouse Embryonic Stem Cell Proliferation and Neural Differentiation by the P2X7 Receptor” (PLoS ONE, 2014)",
  "molecular_target": "T1, P2X7 receptor (Mus musculus, UniProt Q9Z1M0)",
  "T1 construct": "gene P2rx7",
  "T1 sequence (Q9Z1M0 1-595)": "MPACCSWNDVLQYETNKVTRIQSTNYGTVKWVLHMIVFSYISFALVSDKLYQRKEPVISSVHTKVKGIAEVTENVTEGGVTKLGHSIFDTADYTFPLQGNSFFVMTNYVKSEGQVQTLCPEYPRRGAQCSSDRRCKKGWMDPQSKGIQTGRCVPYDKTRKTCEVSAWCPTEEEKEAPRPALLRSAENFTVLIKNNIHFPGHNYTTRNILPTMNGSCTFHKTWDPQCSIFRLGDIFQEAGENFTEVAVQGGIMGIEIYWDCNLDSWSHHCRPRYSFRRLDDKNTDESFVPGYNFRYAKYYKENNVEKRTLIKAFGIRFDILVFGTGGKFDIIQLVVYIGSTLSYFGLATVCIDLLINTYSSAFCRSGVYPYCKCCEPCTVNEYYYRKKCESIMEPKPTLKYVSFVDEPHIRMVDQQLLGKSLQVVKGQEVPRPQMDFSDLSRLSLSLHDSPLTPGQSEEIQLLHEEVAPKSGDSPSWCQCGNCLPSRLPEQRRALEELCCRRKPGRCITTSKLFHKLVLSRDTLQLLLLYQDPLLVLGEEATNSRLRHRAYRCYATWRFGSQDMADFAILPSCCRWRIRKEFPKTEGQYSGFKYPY",
  "experiment": "agonist-induced intracellular calcium microfluorimetry and single-cell calcium imaging in mouse E14Tg2A ES cells (native receptor)",
  "format": "cell-based",
  "data": [
    {"smiles": "Nc1ncnc2c1ncn2[C@@H]1O[C@H](COP(=O)(O)OP(=O)(O)OP(=O)(O)O)[C@@H](O)[C@H]1O", "note": "[ATP]", "values": [
      {"measurement": "EC50", "result": "4.1 ± 1.8", "unit": "µM"}
    ]}
  ]
}
